Experimental data: ChEMBL document CHEMBL1201862, “PubChem BioAssay data set” (2004)
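Cells were grown in 96-well plates and exposed to each compound for 48 hours at five concentrations; endpoints were interpolated linearly between bracketing concentrations, or set to the highest concentration if not reached. At the GI50, growth is halved.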 The source made the active and inactive calls. No stated cut-off is given here; in the data, active = GI50 up to about 1.1 µM and inactive = higher.

Tests used:
Experiment in all cases: DTP human tumour cell line panel, 48 h
[1] = test system: HOP-62
[2] = test system: U-251
[3] = test system: SN12C
[4] = test system: SK-OV-3
[5] = test system: A549
[6] = test system: PC-3
[7] = test system: OVCAR-3
[8] = test system: RXF 393
[9] = test system: HOP-92
[10] = test system: MDA-MB-435
[11] = test system: NCI-H522
[12] = test system: RPMI-8226
[13] = test system: HL-60
[14] = test system: KM12
[15] = test system: MDA-N
[16] = test system: SF-539
[17] = test system: NCI-H460
[18] = test system: M14
[19] = test system: UO-31
[20] = test system: DMS-273

## CC(=O)C(=C(c1ccccc1)c1ccccc1)c1ccccc1
[1]
  GI50: > 100 µM (inactive)
[2]
  GI50: > 100 µM (inactive)
[3]
  GI50: > 100 µM (inactive)
[4]
  GI50: > 100 µM (inactive)
[5]
  GI50: > 100 µM (inactive)
[6]
  GI50: 45.2 µM (inactive)
[7]
  GI50: > 100 µM (inactive)
[8]
  GI50: > 100 µM (inactive)
[9]
  GI50: > 100 µM (inactive)
[10]
  GI50: > 100 µM (inactive)
[11]
  GI50: > 100 µM (inactive)
[12]
  GI50: 52.6 µM (inactive)
[13]
  GI50: 20.5 µM (inactive)
[14]
  GI50: > 100 µM (inactive)
[15]
  GI50: > 100 µM (inactive)
[16]
  GI50: > 100 µM (inactive)
[17]
  GI50: > 100 µM (inactive)
[18]
  GI50: > 100 µM (inactive)
[19]
  GI50: > 100 µM (inactive)

## C=C(Cl)[C@@](Cl)(CBr)CC[C@@H](Br)C(C)(C)Cl
[1]
  GI50: 0.103 µM (active)
[2]
  GI50: 0.154 µM (active)
[3]
  GI50: 2.11 µM (inactive)
[4]
  GI50: 9.16 µM (inactive)
[5]
  GI50: 1.43 µM (inactive)
[6]
  GI50: 0.555 µM (active)
[7]
  GI50: 0.506 µM (active)
[8]
  GI50: 0.126 µM (active)
[9]
  GI50: 0.292 µM (active)
[10]
  GI50: 1.4 µM (inactive)
[11]
  GI50: 22.4 µM (inactive)
[12]
  GI50: 0.0566 µM (active)
[13]
  GI50: 0.3 µM (active)
[14]
  GI50: 0.228 µM (active)
[15]
  GI50: 0.255 µM (active)
[16]
  GI50: 0.141 µM (active)
[17]
  GI50: 0.108 µM (active)
[18]
  GI50: 10.8 µM (inactive)
[19]
  GI50: 0.834 µM (active)

## CCOC(=O)C(=O)/C(=C/N1C(=O)CC(=O)NC1=S)C(=O)OCC
[1]
  GI50: > 100 µM (inactive)
[2]
  GI50: > 100 µM (inactive)
[3]
  GI50: > 100 µM (inactive)
[4]
  GI50: > 100 µM (inactive)
[5]
  GI50: > 100 µM (inactive)
[6]
  GI50: > 100 µM (inactive)
[7]
  GI50: 0.719 µM (active)
[8]
  GI50: > 100 µM (inactive)
[9]
  GI50: 9.29 µM (inactive)
[10]
  GI50: > 100 µM (inactive)
[11]
  GI50: > 100 µM (inactive)
[12]
  GI50: > 100 µM (inactive)
[13]
  GI50: > 100 µM (inactive)
[14]
  GI50: > 100 µM (inactive)
[15]
  GI50: > 100 µM (inactive)
[16]
  GI50: > 100 µM (inactive)
[17]
  GI50: > 100 µM (inactive)
[18]
  GI50: > 100 µM (inactive)
[19]
  GI50: 26.8 µM (inactive)

## COC(=O)[C@@H]1C[C@H]([Se]c2ccccc2)CN1S(=O)(=O)c1ccc(C)cc1
[1]
  GI50: > 100 µM (inactive)
[2]
  GI50: 53 µM (inactive)
[3]
  GI50: > 100 µM (inactive)
[4]
  GI50: > 100 µM (inactive)
[5]
  GI50: 51.8 µM (inactive)
[6]
  GI50: 26.5 µM (inactive)
[7]
  GI50: 56 µM (inactive)
[8]
  GI50: 39.4 µM (inactive)
[9]
  GI50: > 100 µM (inactive)
[10]
  GI50: 47.1 µM (inactive)
[11]
  GI50: 38.9 µM (inactive)
[12]
  GI50: 59.4 µM (inactive)
[13]
  GI50: 36.3 µM (inactive)
[14]
  GI50: 68.9 µM (inactive)
[15]
  GI50: > 100 µM (inactive)
[16]
  GI50: > 100 µM (inactive)
[17]
  GI50: > 100 µM (inactive)
[18]
  GI50: > 100 µM (inactive)
[19]
  GI50: 51.9 µM (inactive)

## O=C(NC1C2CC3CC(C2)CC1C3)c1ccncn1 (configuration not stated)
[1]
  GI50: > 100 µM (inactive)
[2]
  GI50: > 100 µM (inactive)
[3]
  GI50: > 100 µM (inactive)
[5]
  GI50: > 100 µM (inactive)
[7]
  GI50: > 100 µM (inactive)
[20]
  GI50: > 100 µM (inactive)
[9]
  GI50: > 100 µM (inactive)
[11]
  GI50: > 100 µM (inactive)
[13]
  GI50: > 100 µM (inactive)
[14]
  GI50: > 100 µM (inactive)
[16]
  GI50: > 100 µM (inactive)
[17]
  GI50: > 100 µM (inactive)
[18]
  GI50: > 100 µM (inactive)
[19]
  GI50: > 100 µM (inactive)

## CCN(CC)c1ccc(/C=C(\C#N)c2nc(N)nc(N3N=C(C)CC3(C)C)n2)cc1
[1]
  GI50: 11.1 µM (inactive)
[2]
  GI50: 13.3 µM (inactive)
[3]
  GI50: 27.3 µM (inactive)
[4]
  GI50: 6.61 µM (inactive)
[5]
  GI50: 16.2 µM (inactive)
[6]
  GI50: 37.2 µM (inactive)
[7]
  GI50: 17.5 µM (inactive)
[8]
  GI50: 8.93 µM (inactive)
[9]
  GI50: 6.97 µM (inactive)
[10]
  GI50: 21.1 µM (inactive)
[11]
  GI50: 16.9 µM (inactive)
[12]
  GI50: 32 µM (inactive)
[13]
  GI50: 43.7 µM (inactive)
[14]
  GI50: 13.1 µM (inactive)
[15]
  GI50: 24.1 µM (inactive)
[16]
  GI50: 6.89 µM (inactive)
[17]
  GI50: 18.3 µM (inactive)
[18]
  GI50: 19.2 µM (inactive)
[19]
  GI50: 22.4 µM (inactive)

## Cc1c2cccc(Sc3ccccc3)c2c2c3c(cccc13)[S+](c1ccccc1)C2 (configuration not stated)
[1]
  GI50: 1.89 µM (inactive)
[2]
  GI50: 1.5 µM (inactive)
[3]
  GI50: 2.24 µM (inactive)
[4]
  GI50: 1.84 µM (inactive)
[5]
  GI50: 2.88 µM (inactive)
[6]
  GI50: 2.06 µM (inactive)
[7]
  GI50: 0.659 µM (active)
[8]
  GI50: 3.86 µM (inactive)
[9]
  GI50: 2.03 µM (inactive)
[10]
  GI50: 1.75 µM (inactive)
[11]
  GI50: 0.684 µM (active)
[12]
  GI50: 0.221 µM (active)
[13]
  GI50: 0.935 µM (active)
[14]
  GI50: 1.16 µM (inactive)
[15]
  GI50: 2.28 µM (inactive)
[16]
  GI50: 2.63 µM (inactive)
[17]
  GI50: 1.58 µM (inactive)
[18]
  GI50: 2.08 µM (inactive)
[19]
  GI50: 2.95 µM (inactive)

## COc1cc(-c2cc(=O)c3c(O)c(OC)c(OC)c(OC)c3o2)cc(OC)c1OC [GARDENIN]
[1]
  GI50: 3.43 µM (inactive)
[2]
  GI50: 3.01 µM (inactive)
[3]
  GI50: 3.94 µM (inactive)
[4]
  GI50: 5.45 µM (inactive)
[5]
  GI50: 7.18 µM (inactive)
[6]
  GI50: > 100 µM (inactive)
[7]
  GI50: 3.36 µM (inactive)
[8]
  GI50: 8.83 µM (inactive)
[9]
  GI50: 4.04 µM (inactive)
[10]
  GI50: > 100 µM (inactive)
[11]
  GI50: 9.55 µM (inactive)
[12]
  GI50: > 44.7 µM (inactive)
[13]
  GI50: > 60 µM (inactive)
[14]
  GI50: > 100 µM (inactive)
[15]
  GI50: > 92.7 µM (inactive)
[16]
  GI50: 17.1 µM (inactive)
[17]
  GI50: 5.01 µM (inactive)
[18]
  GI50: > 100 µM (inactive)
[19]
  GI50: 7.36 µM (inactive)
